From patent US20240140991A1, “ANTIBIOTIC NATURAL PRODUCT ANALOGUES” (THE QUEEN'S UNIVERSITY OF BELFAST, priority 2021, published 2024)
Values after ≈ are worked out from the molar mass of the structure shown. Positions of bridges follow the written chain, without caps; N, C: chain ends. Non-standard residues stand in square brackets, D forms with d. Residues, ends and D or L forms follow the SMILES beside them. ξ: configuration not given here. *: point of attachment. Octanoyl(7-Me) = CC(C)CCCCCC(=O)*; Hexanoyl(4ξ-Me) = CCC(C)CCC(=O)*; dOrn = NCCC[C@@H](N)C(=O)O; Octanoyl = CCCCCCCC(=O)*; Orn = NCCC[C@H](N)C(=O)O; Dap = NC[C@H](N)C(=O)O; Alloc = C=CCOC(=O)*

System: Escherichia coli ATCC 25922
Type: cell-based
Conditions: ATCC 25922
Method: Minimum inhibitory concentration (MIC) was determined by broth microdilution according to CLSI guidelines. Blood agar plates were inoculated with glycerol stocks of Escherichia coli ATCC 25922, E. coli ATCC 25922 MCR-1, E. coli MCR-1 (clinical isolate from Utrecht Medical Center, NL), E. coli EQAS MCR-2 (clinical isolate from Wageningen University and Research, NL), Kiebsielia pneumoniae ATCC 11228, K. pneumoniae ATCC 13883, K. pneumonia 2048 (clinical isolate from Vrije Universiteit Amsterdam Medical Center, NL), K. pneumonia JS-123 (clinical isolate from Utrecht Medical Center, NL), Acinetobacter baumannii ATCC 17961, A. baumannil ATCC 17978, A. baumannii 2018-006 (clinical isolate from Rijksinstituut voor Volksgezondheid en Milieu, NL), A. baumannii MDR (clinical isolate from Vrije Universiteit Amsterdam Medical Center, NL), Pseudomonas aeruginosa ATCC 27853, P. aeruginosa PAO1, P. aeruginosa NRZ-03961 (Reference strain from Das Nationale Referenzzentrum für gramnegative Krankenhauserreger, DE), P. aeruginosa M-120 (clinical isolate from Leiden University Medical Center, NL) and Staphylococcus aureus USA300 (clinical isolate from Texas Children's Hospitalm, USA). E. coli 25922 MCR1 was grown on LB agar supplemented with kanamycin. The inoculated agar plates were then incubated for 16 hours at 37° C. Individually grown colonies were subsequently used to inoculate 3 mL aliquots of TSB that were then incubated at 37° C. with shaking at 220 rpm. In parallel, the compounds to be assessed were serially diluted with Mueller-Hinton broth (MHB) in polypropylene 96-well plates (50 μL in each well). Once the OD600 of the bacterial suspensions reached 0.5, the bacteria were diluted with MHB (final concentration 2×10^5 CFU mL^−1) and added to the microplates containing the test compounds (50 μL to each well, final volume: 100 μL). The well-plates were sealed with an adhesive membrane and after 16 hours of incubation at 37° C. with shaking at 220 rpm the wells were visually inspected for bacterial growth. MIC values were defined as the lowest concentration of the compound that prevented visible growth of bacteria.

Row | Compound | Minimum inhibitory concentration (MIC) [µg/mL]
1 | CC[C@H](C)[C@H](NC(=O)[C@@H](NC(=O)[C@H](Cc1c[nH]c2ccccc12)NC(=O)[C@@H](CCCN)NC(=O)CNC(=O)[C@H](CCCN)NC(=O)[C@@H](CCCN)NC(=O)[C@@H](Cc1c[nH]c2ccccc12)NC(=O)[C@@H](C)NC(=O)[C@@H](CO)NC(=O)CCCCCC(C)C)[C@@H](C)O)C(=O)N[C@@H](CC(N)=O)C(=O)NCC(=O)NCC(N)=O [Ala2 (D-Tyr→D-Ala), FA-sawoOGoWTINGG-CONH2] ({Octanoyl(7-Me)}-[dS][dA][dW][dOrn][Orn]G[dOrn]WTINGG-NH2) | 8 to 16
2 | CC[C@H](C)[C@@H]1NC(=O)[C@@H](NC(=O)[C@H](Cc2c[nH]c3ccccc23)NC(=O)[C@@H](CCCN)NC(=O)CNC(=O)[C@H](CCCN)NC(=O)[C@@H](CCCN)NC(=O)[C@@H](Cc2c[nH]c3ccccc23)NC(=O)[C@@H](Cc2ccc(O)cc2)NC(=O)[C@@H](CO)NC(=O)CCCCCC(C)C)[C@@H](C)OC(=O)[C@@H](C)NC(=O)[C@H](CO)NC(=O)CNC1=O [Compound R11] ({Octanoyl(7-Me)}-[dS][dY][dW][dOrn][Orn]G[dOrn]WTIGS[dA]; ester 9-C; N-terminus assumed) | 1 (≈ 0.628 µM)
3 | C=CCOC(=O)NC[C@H](NC(=O)[C@H](Cc1c[nH]c2ccccc12)NC(=O)[C@@H](CCCN)NC(=O)CNC(=O)[C@H](CCCN)NC(=O)[C@@H](CCCN)NC(=O)[C@@H](Cc1c[nH]c2ccccc12)NC(=O)[C@@H](Cc1ccc(O)cc1)NC(=O)[C@@H](CO)NC(=O)CCCCCC(C)C)C(=O)N[C@H](C(=O)N[C@@H](CC(N)=O)C(N)=O)[C@@H](C)CC [ΔG12-G13-Dap(Alloc)9-isoC9] ({Octanoyl(7-Me)}-[dS][dY][dW][dOrn][Orn]G[dOrn]W[Dap](Alloc)IN-NH2) | 4 (≈ 2.54 µM)
4 | CC[C@H](C)[C@H](NC(=O)[C@H](CC(N)=O)NC(=O)[C@H](Cc1c[nH]c2ccccc12)NC(=O)[C@@H](CCCN)NC(=O)CNC(=O)[C@H](CCCN)NC(=O)[C@@H](CCCN)NC(=O)[C@@H](Cc1c[nH]c2ccccc12)NC(=O)[C@@H](Cc1ccc(O)cc1)NC(=O)[C@@H](CO)NC(=O)CCCCCC(C)C)C(=O)N[C@@H](CC(N)=O)C(=O)NCC(=O)NCC(N)=O [Asn9-CONH2] ({Octanoyl(7-Me)}-[dS][dY][dW][dOrn][Orn]G[dOrn]WNINGG-NH2) | 4 (≈ 2.45 µM)
5 | CCCCCCCC(=O)N[C@H](CO)C(=O)N[C@H](Cc1ccc(O)cc1)C(=O)N[C@H](Cc1c[nH]c2ccccc12)C(=O)N[C@H](CCCN)C(=O)N[C@@H](CCCN)C(=O)NCC(=O)N[C@H](CCCN)C(=O)N[C@@H](Cc1c[nH]c2ccccc12)C(=O)N[C@@H](CO)C(=O)N[C@H](C(=O)N[C@@H](CC(N)=O)C(=O)NCC(N)=O)[C@@H](C)CC [ΔG13-Ser9-C8] (Octanoyl-[dS][dY][dW][dOrn][Orn]G[dOrn]WSING-NH2) | 4 (≈ 2.6 µM)
6 | C=CCOC(=O)NC[C@H](NC(=O)[C@H](Cc1c[nH]c2ccccc12)NC(=O)[C@@H](CCCN)NC(=O)CNC(=O)[C@H](CCCN)NC(=O)[C@@H](CCCN)NC(=O)[C@@H](Cc1c[nH]c2ccccc12)NC(=O)[C@@H](Cc1ccc(O)cc1)NC(=O)[C@@H](CO)NC(=O)CCCCCCC)C(=O)N[C@H](C(=O)N[C@@H](CC(N)=O)C(N)=O)[C@@H](C)CC [ΔG12-G13-Dap(Alloc)9-C8] (Octanoyl-[dS][dY][dW][dOrn][Orn]G[dOrn]W[Dap](Alloc)IN-NH2) | 4 (≈ 2.56 µM)
7 | CCC(C)CCC(=O)N[C@H](CO)C(=O)N[C@H](Cc1ccc(O)cc1)C(=O)N[C@H](Cc1c[nH]c2ccccc12)C(=O)N[C@H](CCCN)C(=O)N[C@@H](CCCN)C(=O)NCC(=O)N[C@H](CCCN)C(=O)N[C@@H](Cc1c[nH]c2ccccc12)C(=O)N[C@@H]1C(=O)N[C@@H]([C@@H](C)CC)C(=O)NCC(=O)N[C@@H](CO)C(=O)NCC(=O)O[C@@H]1C (stereo partly shown) [Compound R1] ({Hexanoyl(4ξ-Me)}-[dS][dY][dW][dOrn][Orn]G[dOrn]WTIGSG; ester 9-C; N-terminus assumed) | 2 (≈ 1.29 µM)
8 | CC[C@H](C)[C@@H]1NC(=O)[C@@H](NC(=O)[C@H](Cc2c[nH]c3ccccc23)NC(=O)[C@@H](CCCN)NC(=O)CNC(=O)[C@H](CCCN)NC(=O)[C@@H](CCCN)NC(=O)[C@@H](Cc2c[nH]c3ccccc23)NC(=O)[C@@H](Cc2ccc(O)cc2)NC(=O)[C@@H](CO)NC(=O)CCCCCC(C)C)[C@@H](C)OC(=O)CNC(=O)[C@H](CO)NC(=O)CNC1=O [Compound R3] ({Octanoyl(7-Me)}-[dS][dY][dW][dOrn][Orn]G[dOrn]WTIGSG; ester 9-C; N-terminus assumed) | 2 to 4
9 | CC[C@H](C)[C@@H]1NC(=O)[C@@H](NC(=O)[C@H](Cc2c[nH]c3ccccc23)NC(=O)[C@@H](CCCN)NC(=O)CNC(=O)[C@H](CCCN)NC(=O)[C@@H](CCCN)NC(=O)[C@@H](Cc2c[nH]c3ccccc23)NC(=O)[C@@H](Cc2ccc(O)cc2)NC(=O)[C@@H](CO)NC(=O)CCCCCC(C)C)[C@@H](C)OC(=O)[C@H](C)NC(=O)[C@@H](CO)NC(=O)CNC1=O [Compound R10] ({Octanoyl(7-Me)}-[dS][dY][dW][dOrn][Orn]G[dOrn]WTIG[dS]A; ester 9-C; N-terminus assumed) | 1 to 2
10 | CC[C@H](C)[C@H](NC(=O)[C@@H](NC(=O)[C@H](Cc1c[nH]c2ccccc12)NC(=O)[C@@H](CCCN)NC(=O)CNC(=O)[C@H](CCCN)NC(=O)[C@@H](CCCN)NC(=O)[C@@H](Cc1c[nH]c2ccccc12)NC(=O)[C@@H](Cc1ccc(O)cc1)NC(=O)[C@@H](C)NC(=O)CCCCCC(C)C)[C@@H](C)O)C(=O)N[C@@H](CC(N)=O)C(=O)NCC(=O)NCC(N)=O [Ala1 (D-Ser→D-Ala), FA-aywoOGoWTINGG-CONH2] ({Octanoyl(7-Me)}-[dA][dY][dW][dOrn][Orn]G[dOrn]WTINGG-NH2) | 4 to 8
11 | CCC(C)CCC(=O)N[C@H](CO)C(=O)N[C@H](Cc1ccc(O)cc1)C(=O)N[C@H](Cc1c[nH]c2ccccc12)C(=O)N[C@H](CCCN)C(=O)N[C@@H](CCCN)C(=O)NCC(=O)N[C@H](CCCN)C(=O)N[C@@H](Cc1c[nH]c2ccccc12)C(=O)N[C@@H]1C(=O)N[C@@H]([C@@H](C)CC)C(=O)NCC(=O)N[C@H](CO)C(=O)NCC(=O)O[C@@H]1C (stereo partly shown) [Compound R2] ({Hexanoyl(4ξ-Me)}-[dS][dY][dW][dOrn][Orn]G[dOrn]WTIG[dS]G; ester 9-C; N-terminus assumed) | 2 (≈ 1.29 µM)
12 | CC[C@H](C)[C@H](NC(=O)[C@H](Cc1ccccc1)NC(=O)[C@H](Cc1c[nH]c2ccccc12)NC(=O)[C@@H](CCCN)NC(=O)CNC(=O)[C@H](CCCN)NC(=O)[C@@H](CCCN)NC(=O)[C@@H](Cc1c[nH]c2ccccc12)NC(=O)[C@@H](Cc1ccc(O)cc1)NC(=O)[C@@H](CO)NC(=O)CCCCCC(C)C)C(=O)N[C@@H](CC(N)=O)C(=O)NCC(=O)NCC(N)=O [Phe9-CONH2] ({Octanoyl(7-Me)}-[dS][dY][dW][dOrn][Orn]G[dOrn]WFINGG-NH2) | 2 (≈ 1.2 µM)
13 | CC(C)CCCCCC(=O)N[C@H](CO)C(=O)N[C@H](Cc1ccc(O)cc1)C(=O)N[C@H](Cc1c[nH]c2ccccc12)C(=O)N[C@H](CCCN)C(=O)N[C@@H](CCCN)C(=O)NCC(=O)N[C@H](CCCN)C(=O)N[C@@H](Cc1c[nH]c2ccccc12)C(=O)N[C@H](C(=O)N[C@@H](C)C(=O)N[C@@H](CC(N)=O)C(=O)NCC(=O)NCC(N)=O)[C@@H](C)O [Ala10 (Ile→Ala), FA-sywoOGoWTANGG-CONH2] ({Octanoyl(7-Me)}-[dS][dY][dW][dOrn][Orn]G[dOrn]WTANGG-NH2) | 16 (≈ 10.1 µM)
